Assay results reported in the supplement of paper PMC10307832.

Compound: CC(C)(C)c1cc(NC(=O)Nc2ccc(-c3cn4c(n3)sc3cc(OCCN5CCOCC5)ccc34)cc2)no1 [Quizartinib] + O=C(CCCCCCC(=O)Nc1ccccc1)NO [Vorinostat] (partner 1 µM)
Test: relative viability (nuclei count vs DMSO), 5 days (fraction); higher = more cells survive
Conditions: first compound 0.1 µM
Method in brief: (§1)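 Values are medians from duplicate plates. Each reflects relative viability, defined as the nuclei count of treated wells over that of vehicle wells. Lung cancer cell lines in 1536-well plates were pin-tool dosed one day after seeding with one drug alone or with a fixed anchor-drug dose plus five library-drug doses (not always all listed) in √10 steps, then fixed, stained and imaged at 4× after 5 days.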

Row | Cell Line | relative viability
1 | NCI-H1395 | 0.858
2 | NCI-H2009 | 0.761
3 | HCC-366 | 0.386
4 | NCI-H1915 | 0.562
5 | NCI-H2347 | 0.603
6 | LCLC-103H | 0.779
7 | HCC-78 | 0.445
8 | IA-LM | 0.955
9 | HCC-44 | 1.11

Compound: CC(C)(C)c1cc(NC(=O)Nc2ccc(-c3cn4c(n3)sc3cc(OCCN5CCOCC5)ccc34)cc2)no1 [Quizartinib] + Cc1nc(Nc2ncc(C(=O)Nc3c(C)cccc3Cl)s2)cc(N2CCN(CCO)CC2)n1 [Dasatinib] (partner 0.075 µM)
Test: as above
Conditions: first compound 0.001 µM
Method in brief: as §1

Row | Cell Line | relative viability
10 | EPLC-272H | 0.326
11 | NCI-H520 | 0.169
12 | NCI-H1563 | 0.523
13 | NCI-H650 | 0.484
14 | RERF-LC-KJ | 0.765
15 | HCC-827 | 0.315
16 | SK-MES-1 | 0.337
17 | NCI-H1651 | 0.306
18 | NCI-H1355 | 0.719
19 | H3255 | 0.414
20 | NCI-H647 | 0.173
21 | NCI-H1623 | 0.502
22 | LCLC-97TM1 | 0.856
23 | LXF-289 | 0.218
24 | LU99A | 0.419
25 | NCI-H2023 | 0.428
26 | NCI-H2228 | 0.608
27 | NCI-H1437 | 0.375
28 | NCI-H1395 | 0.384
29 | NCI-H2009 | 0.283
30 | HCC-366 | 0.531
31 | NCI-H1915 | 0.344
32 | NCI-H2347 | 0.3
33 | LCLC-103H | 0.461
34 | HCC-78 | 0.354

Same assay, conditions: first compound 0.003162 µM

Row | Cell Line | relative viability
35 | EKVX | 0.588
36 | EPLC-272H | 0.366
37 | NCI-H520 | 0.192
38 | NCI-H1563 | 0.505
39 | NCI-H650 | 0.524
40 | RERF-LC-KJ | 0.755
41 | HCC-827 | 0.396
42 | NCI-H2087 | 0.699
43 | SK-MES-1 | 0.354
44 | NCI-H1651 | 0.429
45 | UMC-11 | 0.386
46 | NCI-H1355 | 0.762
47 | H3255 | 0.347
48 | NCI-H1792 | 0.742
49 | NCI-H647 | 0.181
50 | NCI-H1623 | 0.627
51 | LCLC-97TM1 | 0.735
52 | LXF-289 | 0.21
53 | LU99A | 0.592
54 | NCI-H2023 | 0.507
55 | NCI-H2228 | 0.413
56 | NCI-H1437 | 0.467
57 | NCI-H1395 | 0.418
58 | NCI-H2009 | 0.29
59 | HCC-366 | 0.548
60 | NCI-H1915 | 0.329
61 | NCI-H2347 | 0.298
62 | LCLC-103H | 0.454
63 | HCC-78 | 0.53

Same assay, conditions: first compound 0.01 µM

Row | Cell Line | relative viability
64 | EKVX | 0.514
65 | EPLC-272H | 0.4
66 | NCI-H520 | 0.244
67 | NCI-H1563 | 0.458
68 | NCI-H650 | 0.391
69 | RERF-LC-KJ | 0.794
70 | HCC-827 | 0.325
71 | NCI-H2087 | 0.863
72 | SK-MES-1 | 0.404
73 | NCI-H1651 | 0.392
74 | UMC-11 | 0.487
75 | NCI-H1355 | 0.684
76 | H3255 | 0.366
77 | NCI-H1792 | 0.84
78 | NCI-H647 | 0.178
79 | NCI-H1623 | 0.507
80 | LCLC-97TM1 | 0.842
81 | LXF-289 | 0.29
82 | LU99A | 0.523
83 | NCI-H2023 | 0.634
84 | NCI-H2228 | 0.597
85 | NCI-H1437 | 0.384
86 | NCI-H1395 | 0.388
87 | NCI-H2009 | 0.252
88 | HCC-366 | 0.575
89 | NCI-H1915 | 0.262
90 | NCI-H2347 | 0.296
91 | LCLC-103H | 0.402
92 | HCC-78 | 0.308

Same assay, conditions: first compound 0.03162 µM

Row | Cell Line | relative viability
93 | EKVX | 0.56
94 | EPLC-272H | 0.38
95 | NCI-H520 | 0.198
96 | NCI-H1563 | 0.468
97 | NCI-H650 | 0.415
98 | RERF-LC-KJ | 0.414
99 | HCC-827 | 0.274
100 | NCI-H2087 | 0.626
101 | NCI-H1651 | 0.296
102 | UMC-11 | 0.434
103 | NCI-H1355 | 0.747
104 | H3255 | 0.346
105 | NCI-H1792 | 0.658
106 | NCI-H647 | 0.199
107 | NCI-H1623 | 0.623
108 | LCLC-97TM1 | 0.892
109 | LXF-289 | 0.254
110 | LU99A | 0.467
111 | NCI-H2228 | 0.494
112 | NCI-H1437 | 0.27
113 | NCI-H1395 | 0.421
114 | NCI-H2009 | 0.326
115 | HCC-366 | 0.612
116 | NCI-H1915 | 0.303
117 | NCI-H2347 | 0.376
118 | LCLC-103H | 0.557
119 | HCC-78 | 0.294

Same assay, conditions: first compound 0.1 µM

Row | Cell Line | relative viability
120 | EKVX | 0.602
121 | EPLC-272H | 0.377
122 | NCI-H520 | 0.171
123 | NCI-H1563 | 0.493
124 | NCI-H650 | 0.506
125 | RERF-LC-KJ | 0.681
126 | HCC-827 | 0.281
127 | NCI-H2087 | 0.979
128 | SK-MES-1 | 0.273
129 | NCI-H1651 | 0.441
130 | UMC-11 | 0.454
